Data on 9 molecules can be found in ChEMBL document CHEMBL1133314, “Syntheses and biological evaluation of novel pseudomycin side-chain analogues. Part 2” (2000).

Experiment [1] has as its system Candida albicans. Kind of experiment: Lowest concentration required to inhibit 90-100% of the visible growth of Candida albicans; Range is […]. The format is functional.
For a further experiment, the system named is Aspergillus fumigatus. Briefly: Lowest concentration required to inhibit 90-100% of the visible growth of Aspergillus fumigatus. The format is functional.
The subject of experiment [2] is Cryptococcus neoformans. Kind of experiment: Tested in vitro for lowest concentration required to inhibit 90-100% of the visible growth of Cryptococcus neoformans.
The test system of experiment [3] is Candida albicans. Briefly: Lowest concentration required to inhibit 90-100% of the visible growth of Candida albicans. Format: functional.
The test system of experiment [4] is Candida albicans. Kind of experiment: Lowest concentration required to inhibit 90-100% of the visible growth of Candida albicans; Range is 0.625-1.25. The format is functional.
Experiment [5] relates to Cryptococcus neoformans. Kind of experiment: Tested in vitro for lowest concentration required to inhibit 90-100% of the visible growth of Cryptococcus neoformans; Range is 0.02-0.078.
Experiment [6] has as its system Candida albicans. Kind of experiment: Lowest concentration required to inhibit 90-100% of the visible growth of Candida albicans; Range is 0.312-1.25. The format is functional.

Each structure is given as a SMILES string. ≈ marks a conversion by molar mass, not a printed value.

A word on the MIC: it is the lowest concentration that inhibits growth of the organism. `C/C=C1\NC(=O)[C@H]([C@H](C)O)NC(=O)[C@H](CCN)NC(=O)[C@H](CCCCN)NC(=O)[C@H](CC(=O)O)NC(=O)[C@@H](CCN)NC(=O)[C@@H](NC(=O)C[C@@H](O)CCCCCCCCCCC)COC(=O)[C@H]([C@H](O)CCl)NC(=O)[C@H]([C@H](O)C(=O)O)NC1=O`: the MIC in the experiment on Candida albicans [1] was 5 µg/mL (≈ 4.14 µM); in the experiment with Aspergillus fumigatus, over 20 µg/mL.
On to `C/C=C1\NC(=O)[C@H]([C@H](C)O)NC(=O)[C@H](CCN)NC(=O)[C@H](CCCCN)NC(=O)[C@H](CC(=O)O)NC(=O)[C@@H](CCN)NC(=O)[C@@H](NC(=O)C[C@H](O)CCCCCCCCCCCCCCC)COC(=O)[C@H]([C@H](O)CCl)NC(=O)[C@H]([C@H](O)C(=O)O)NC1=O`, for which the MIC against Cryptococcus neoformans [2] was determined as 0.01 µg/mL (≈ 0.00791 µM); with Candida albicans [3], 0.625 µg/mL (≈ 0.495 µM); against Aspergillus fumigatus it was 2.5 µg/mL (≈ 1.98 µM).
The matching figures for `C/C=C1\NC(=O)[C@H]([C@H](C)O)NC(=O)[C@H](CCN)NC(=O)[C@H](CCCCN)NC(=O)[C@H](CC(=O)O)NC(=O)[C@@H](CCN)NC(=O)[C@@H](NC(=O)C[C@@H](O)CCCCCCCCCCCCCCCCC)COC(=O)[C@H]([C@H](O)CCl)NC(=O)[C@H]([C@H](O)C(=O)O)NC1=O`: 5 µg/mL (≈ 3.87 µM), 5 µg/mL (≈ 3.87 µM) and over 20 µg/mL.
As for `C/C=C1\NC(=O)[C@H]([C@H](C)O)NC(=O)[C@H](CCN)NC(=O)[C@H](CCCCN)NC(=O)[C@H](CC(=O)O)NC(=O)[C@@H](CCN)NC(=O)[C@@H](NC(=O)C[C@H](O)CCCCCCCCCCCCCCCCC)COC(=O)[C@H]([C@H](O)CCl)NC(=O)[C@H]([C@H](O)C(=O)O)NC1=O`, the MIC stood at 1.25 µg/mL (≈ 0.968 µM) in the experiment with Cryptococcus neoformans [2], 5 µg/mL (≈ 3.87 µM) in the experiment on Candida albicans [3] and 5 µg/mL (≈ 3.87 µM) against Aspergillus fumigatus.
Regarding `C/C=C1\NC(=O)[C@H]([C@H](C)O)NC(=O)[C@H](CCN)NC(=O)[C@H](CCCCN)NC(=O)[C@H](CC(=O)O)NC(=O)[C@@H](CCN)NC(=O)[C@@H](NC(=O)C[C@@H](O)CCCCCCCCCCCCCCC)COC(=O)[C@H]([C@H](O)CCl)NC(=O)[C@H]([C@H](O)C(=O)O)NC1=O`, the figures for the MIC against Cryptococcus neoformans [2], against Candida albicans [3] and in the experiment with Aspergillus fumigatus were 0.312 µg/mL (≈ 0.247 µM), 2.5 µg/mL (≈ 1.98 µM) and 10 µg/mL (≈ 7.91 µM), respectively.
For the molecule `C/C=C1\NC(=O)[C@H]([C@@H](C)O)NC(=O)[C@H](CCN)NC(=O)[C@H](CCCCN)NC(=O)[C@H](CC(=O)O)NC(=O)[C@@H](CCN)NC(=O)[C@@H](NC(=O)CC(O)CCCCCCCCCCCCCCCCC)COC(=O)[C@H]([C@H](O)CCl)NC(=O)[C@H]([C@H](O)C(=O)O)NC1=O` (mixture of isomers), the MIC stood at 0.625 µg/mL against Cryptococcus neoformans [2], 10 µg/mL against Candida albicans [3] and 2.5 µg/mL against Aspergillus fumigatus.
For the molecule `C/C=C1\NC(=O)[C@H]([C@@H](C)O)NC(=O)[C@H](CCN)NC(=O)[C@H](CCCCN)NC(=O)[C@H](CC(=O)O)NC(=O)[C@@H](CCN)NC(=O)[C@@H](NC(=O)CC(O)CCCCCCCCCCC)COC(=O)[C@H]([C@H](O)CCl)NC(=O)[C@H]([C@H](O)C(=O)O)NC1=O` (mixture of isomers), the MIC was 1.25 µg/mL against Candida albicans [4] and over 20 µg/mL in the experiment with Aspergillus fumigatus.
On to `C/C=C1\NC(=O)[C@H]([C@@H](C)O)NC(=O)[C@H](CCN)NC(=O)[C@H](CCCCN)NC(=O)[C@H](CC(=O)O)NC(=O)[C@@H](CCN)NC(=O)[C@@H](NC(=O)CC(O)CCCCCCCCCCCCCCC)COC(=O)[C@H]([C@H](O)CCl)NC(=O)[C@H]([C@H](O)C(=O)O)NC1=O` (mixture of isomers), for which the MIC against Cryptococcus neoformans [5] came out at 0.02 µg/mL; against Candida albicans [3], 1.25 µg/mL; against Aspergillus fumigatus, 5 µg/mL.
Consider `C/C=C1\NC(=O)[C@H]([C@H](C)O)NC(=O)[C@H](CCN)NC(=O)[C@H](CCCCN)NC(=O)[C@H](CC(=O)O)NC(=O)[C@@H](CCN)NC(=O)[C@@H](NC(=O)C[C@H](O)CCCCCCCCCCC)COC(=O)[C@H]([C@H](O)CCl)NC(=O)[C@H]([C@H](O)C(=O)O)NC1=O` [PSEUDOMYCIN B], for which the values for the MIC in the experiment with Candida albicans [6] and in the experiment with Aspergillus fumigatus were 1.25 µg/mL (≈ 1.03 µM) and over 20 µg/mL, respectively.
